# Test system: mice immunized with a four-antigen cocktail (MUC1-KLH, GD3-KLH, OVA)
# Assay: preclinical mouse vaccination model; antibody titers by ELISA
# Assay type: in vivo
# Conditions: 5 μg and 20 μg dose of saponin variant (both doses); data not shown
# Description: Panels a-c: anti-KLH (IgG) (Panel a), anti-OVA (IgG) (Panel b), and anti-MUC1 (IgG) (Panel c) antibody titers at 5 μg dose of each saponin variant. […] Median titer values represented as horizontal bars. Statistical significance compared to the no-adjuvant negative control assessed using unpaired Student's t-test with CI=95%: *p≤0.05, **p<0.01, ***p<0.001.
# There is currently no in vitro method to measure adjuvant activity, due in part to the unknown and likely multivariate mechanisms of saponin adjuvant action. Thus, we proceeded directly to testing these QS variants in vivo in a mouse vaccination model. Cohorts of mice were immunized with the saponin variant of interest (5 or 20 μg) and a four-antigen cocktail comprising: (1) the immunogenic peptide MUC1 (prostate and breast cancer antigen, non-glycosylated tandem repeat) conjugated to a highly immunogenic carrier protein KLH (keyhole limpet hemocyanin; MUC1-KLH), (2) the poorly immunogenic ganglioside GD3 (melanoma, neuroblastoma, sarcoma antigen) conjugated to KLH (GD3-KLH), and (3) the immunogenic protein antigen ovalbumin (OVA). The antibody titers elicited against all […] antigens were evaluated by ELISA to compare the adjuvant activity of each QS analogue.
compound,measurement,value
C[C@H]1O[C@@H](OC2C(O)[C@@H](NC(=O)CCCCCCCCCCC(=O)O)C(CO)O[C@@H]2OC(=O)N[C@]23CCC(C)(C)CC2C2=CCC4C5(C)CC[C@H](O[C@@H]6OC(C(=O)O)[C@@H](O)[C@H](O[C@@H]7OC[C@@H](O)[C@H](O)C7O)C6O[C@@H]6OC(CO)[C@H](O)[C@H](O)C6O)[C@](C)(C=O)[C@@H]5CC[C@]4(C)[C@]2(C)CC3O)C(O)C(O)[C@H]1O[C@@H]1OC[C@@H](O)C(O)C1O (stereo partly drawn) [α-4],"adjuvant activity (anti-KLH, anti-OVA, anti-MUC1 IgG antibody titers)",inactive
